Test results from publication PMC4514850, “A Novel TGR5 Activator WB403 Promotes GLP-1 Secretion and Preserves Pancreatic β-Cells in Type 2 Diabetic Mice” (PLoS ONE, 2015).

Tests used:
[1] = tested on: HFD/STZ mice; test: oral glucose tolerance test in HFD/STZ mice; assay type: in vivo; settings: 2 g/kg glucose, oral 50, 100 mg/kg 30 min before load
Experimental: For generation of nongenetic mice model of type 2 diabetes, ICR mice were fed with high fat diet (HFD, with 60% fat, Research Diets) for three weeks, then fasted for 5 h before receiving a single dose of streptozotocin (STZ, Sigma) intraperitoneally (ip) at 80 mg/kg to induce partial insulin deficiency. […] Diabetes was assessed using conventional criteria. Mice with similar degree of hyperglycemia and body weight were randomized into various groups in order to get a similar average PBG in each group.
Mice were fasted overnight (14 h) before glucose tolerance tests. Normal mice received a 4 g/kg glucose challenge and for diabetic mice it’s 2 g/kg. WB403 at 50, 100 mg/kg, or sitagliptin at 100 mg/kg were administrated orally 30 min prior to glucose load (n = 10). For vehicle group, 0.5% CMC was administrated. Blood glucose levels were measured from tail bleeds with a glucometer (Roche, Accu-Chek Performa) at specified time points. Animals were treated and assessed in the order of the vehicle, WB403 50, 100 mg/kg and sitagliptin 100 mg/kg group.
Fig 2 Effects of WB403 on glucose tolerance during OGTT in normal and diabetic mice. OGTT time course and AUC in normal mice (A, B), HFD/STZ mice (C, D) and db/db mice (E, F). Values represent mean ± SD (n = 10). *p<0.05, **p<0.01, ***p<0.001 vs. vehicle group. Asterisks in A, C and E reflect significance between WB403 100 mg/kg and vehicle group.

[2] = target: T1, hTGR5 (Homo sapiens, UniProt Q8TDU6); test: human TGR5 CRE-luciferase assay in co-transfected 293T cells; assay type: cell-based
T1 construct: expressed in transfected cells; host or cells: 293T cells, transient transfection with pTGR5 (gift from Prof. Johan Auwerx)
T1 sequence (Q8TDU6 1-330): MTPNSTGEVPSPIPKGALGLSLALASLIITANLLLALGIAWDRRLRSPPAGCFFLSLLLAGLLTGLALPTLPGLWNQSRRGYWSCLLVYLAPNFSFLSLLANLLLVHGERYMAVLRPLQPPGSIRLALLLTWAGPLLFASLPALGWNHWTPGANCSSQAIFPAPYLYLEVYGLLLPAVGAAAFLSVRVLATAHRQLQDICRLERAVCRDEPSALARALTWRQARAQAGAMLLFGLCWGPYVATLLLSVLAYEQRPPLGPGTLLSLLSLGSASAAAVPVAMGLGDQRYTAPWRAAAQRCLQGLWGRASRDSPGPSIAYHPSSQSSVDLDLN
Experimental: For human TGR5 luciferase (luc) assay, 293T cells were co-transfected with pCRE-luc, pTGR5 (kind gift from Prof. Johan Auwerx, Ecole Polytechnique Fédérale de Lausanne, Lausanne, Switzerland) and pRenilla (Promega, USA). WB403 was added 5 h later. Cells were harvested after 16 h and subjected to luciferase analysis on Lumistar Optima chemiluminescent detector (BMG labtech, Germany). For cAMP testing, 293T cells transiently transfected with pTGR5 or pGPR119 (GeneCopoeia, USA) were washed by FBS-free DMEM, and stimulated with WB403 in FBS-free DMEM containing 3-isobutyl-1-methyl-xanthine (IBMX, Sigma). Cell lysates were collected 30 min later and used for cAMP ELISA assay. FLIPR Calcium 5 assay kit (Molecular Devices, USA) was used for calcium mobilization assay. 293-GPR40 stable cells (kindly provided by Prof. Naiming Zhou of Zhejiang University, Hanzhou, China) or 293 cells transient transfected with GPR120 were seeded at 50,000 cells per well in black-walled clear-bottomed 96-well plates (Costar). An equal volume of loading buffer containing Fluo 4-AM was added the following day and cells were incubated for 1 h before stimulated with compounds. Increase of the intracellular Ca^2+ concentration was monitored by Flexstation 3 system (Molecular Devices, USA).
Fig 1 WB403 activated TGR5 and promoted active GLP-1 secretion. (A) WB403 stimulated hTGR5 in CRE-luciferase report system at the concentration range of 1–20 μmol/l. (B) WB403 stimulated hTGR5 specific cAMP accumulation at the concentration range of 1–50 μmol/l. n = 3. **p<0.01, ***p<0.001 vs. DMSO (+TGR5) group. (C) The hTGR5 targeted CRE-luciferase activity of WB403 and ZY403. […] (D) Effect of WB403 and ZY403 on gallbladders of mice. Normal mice were fasted overnight and treated with compounds (200 mg/kg) or vehicle (DMSO) by ip injection. Gallbladders (GB) were removed 30 min later and volumes measured then normalized to body weight (B.W.). n = 10. **p<0.01 vs. vehicle group. (E) Structure of WB403 and ZY403. WB403 promoted GLP-1 secretion in NCI-H716 cells (F), primary enterocytes (G), and MIN6 cells (H). n = 3. *p<0.05, **p<0.01, ***p<0.001 vs. vehicle group. (I) WB403 promoted GLP-1 in ICR mice. n = 5. **p<0.01 vs. vehicle group. Values represent mean ± SEM.

CCc1cc(-c2nc(C)c(COCc3ccc(Br)cc3)s2)ccn1 [WB403, 4-(5-((4-bromobenzyloxy)-methyl)-4-methylthiazol-2-yl)-2-ethylpyridine]
blood glucose tolerance (OGTT) vs vehicle [1]: The same results | stimulation of luciferase reaction through TGR5 ([2]; 1–20 μmol/l, Fig 1A): dose-dependently stimulate | EC50 ([2]; CRE-luciferase, 293T cells, read-out: TGR5 EC50): 5.5 µM | luciferase activity in control 293T cells ([2]; control 293T cells transfected with an empty plasmid): no stimulation | TGR5 luciferase activity in primary screen (fold increase compared to DMSO control) ([2]; screen of 100 compounds, S1 Fig): relatively lower luciferase activity
